Each structure is given as a SMILES string. Read-outs that look alike come from different tables or passages of the source. A value given as a limit tells only on which side of the number the result lay.

The test system of data set [1] is generation of TXB2 in the whole blood. Description: whole blood assay, yield of TXB2 in coagulated blood (ELISA). It is filed as cell-based. To be noted: Homo sapiens, read-out: inhibition IC50 onto generation of TXB2 in the whole blood test. Here is the method: (§1) Deuterated benzopyran compounds of different concentrations were uniformly mixed with ovine COX-1 and human recombinant COX-2 for incubation for 15 min, respectively, and then the system was added with Heme and ADHP for incubation for another 2 min and finally added with substrate arachidonic acid. The light emission intensity of the reaction product at 595 nm was immediately detected by a microplate reader under exciting light at 530 nm. […] In the whole blood assay, venous blood of healthy donors was collected with a non-anticoagulation tube and a heparin tube, deuterated benzopyran compounds of different concentrations (1×10^−8 to 1×10^−4) were mixed with the blood in the non-anticoagulation tube, the supernatant was collected after the blood was coagulated and then measured by ELISA in terms of the yield of TXB2; and deuterated benzopyran compounds of different concentrations (1×10^−8 to 1×10^−4) were mixed with the blood in the heparin tube, the mixture was added with lipopolysaccharide until the final concentration was 100 μg/mL, mixed uniformly and then kept stand overnight at 37° C., the supernatant was collected by centrifugation and then measured by ELISA in terms of the yield of PGE2. […]

Data set [2] deals with generation of PGE2 in the whole blood. Description: whole blood assay, lipopolysaccharide-induced yield of PGE2 in heparin blood (ELISA). The format is cell-based, human. The following applies: for IC50: Homo sapiens, read-out: inhibition IC50 onto generation of PGE2 in the whole blood test. Here is the method:
(§2) Deuterated benzopyran compounds of different concentrations were uniformly mixed with ovine COX-1 and human recombinant COX-2 for incubation for 15 min, respectively, and then the system was added with Heme and ADHP for incubation for another 2 min and finally added with substrate arachidonic acid. The light emission intensity of the reaction product at 595 nm was immediately detected by a microplate reader under exciting light at 530 nm. […] In the whole blood assay, venous blood of healthy donors was collected with a non-anticoagulation tube and a heparin tube, deuterated benzopyran compounds of different concentrations (1×10^−8 to 1×10^−4) were mixed with the blood in the non-anticoagulation tube, the supernatant was collected after the blood was coagulated and then measured by ELISA in terms of the yield of TXB2; and deuterated benzopyran compounds of different concentrations (1×10^−8 to 1×10^−4) were mixed with the blood in the heparin tube, the mixture was added with lipopolysaccharide until the final concentration was 100 μg/mL, mixed uniformly and then kept stand overnight at 37° C., the supernatant was collected by centrifugation and then measured by ELISA in terms of the yield of PGE2.

The nature of data set [3]: Test on pharmacokinetics and bioavailability of rats. To be noted: for Vd / BA / AUC / Cmax / Tmax / half-life / t½: male SD rats; for BA: oral, calculated according AUC data; for AUC / Cmax / Tmax / half-life / t½: oral administration; for half-life: read-out: t½ (converted). It is filed as in vivo, SD rats. Here is the method: The blood samples employ acetonitrile to precipitate protein, 16000 rpm*30 min, and the supernatant is used for LC/MS analysis. Data is performed with parameter fitting by DAS2.0, and the bioavailability of oral administration of compounds is calculated according AUC data.

For data set [4], the target named is T1, ovine COX-1 (Ovis aries, UniProt P05979).
T1 sequence (P05979 25-600): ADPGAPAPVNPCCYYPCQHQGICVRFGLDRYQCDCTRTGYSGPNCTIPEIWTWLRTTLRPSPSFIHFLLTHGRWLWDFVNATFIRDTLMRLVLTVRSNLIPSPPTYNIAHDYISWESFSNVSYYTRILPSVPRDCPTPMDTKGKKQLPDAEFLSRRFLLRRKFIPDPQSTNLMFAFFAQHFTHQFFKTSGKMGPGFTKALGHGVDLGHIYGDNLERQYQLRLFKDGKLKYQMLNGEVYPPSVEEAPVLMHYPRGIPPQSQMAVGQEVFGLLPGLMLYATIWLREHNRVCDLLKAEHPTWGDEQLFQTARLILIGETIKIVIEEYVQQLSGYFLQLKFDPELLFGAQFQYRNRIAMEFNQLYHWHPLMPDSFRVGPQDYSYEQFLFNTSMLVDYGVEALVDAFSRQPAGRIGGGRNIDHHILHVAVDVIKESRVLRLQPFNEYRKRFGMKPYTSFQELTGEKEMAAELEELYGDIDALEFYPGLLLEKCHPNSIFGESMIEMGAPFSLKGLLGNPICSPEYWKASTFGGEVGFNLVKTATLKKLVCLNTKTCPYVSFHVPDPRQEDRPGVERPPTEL
Briefly: COX-1 enzyme inhibition (ADHP fluorescence). It is filed as biochemical. Here is the method: as §1

Data set [5] deals with T2, human recombinant COX-2 (Homo sapiens, UniProt P35354).
T2 sequence (P35354 18-604): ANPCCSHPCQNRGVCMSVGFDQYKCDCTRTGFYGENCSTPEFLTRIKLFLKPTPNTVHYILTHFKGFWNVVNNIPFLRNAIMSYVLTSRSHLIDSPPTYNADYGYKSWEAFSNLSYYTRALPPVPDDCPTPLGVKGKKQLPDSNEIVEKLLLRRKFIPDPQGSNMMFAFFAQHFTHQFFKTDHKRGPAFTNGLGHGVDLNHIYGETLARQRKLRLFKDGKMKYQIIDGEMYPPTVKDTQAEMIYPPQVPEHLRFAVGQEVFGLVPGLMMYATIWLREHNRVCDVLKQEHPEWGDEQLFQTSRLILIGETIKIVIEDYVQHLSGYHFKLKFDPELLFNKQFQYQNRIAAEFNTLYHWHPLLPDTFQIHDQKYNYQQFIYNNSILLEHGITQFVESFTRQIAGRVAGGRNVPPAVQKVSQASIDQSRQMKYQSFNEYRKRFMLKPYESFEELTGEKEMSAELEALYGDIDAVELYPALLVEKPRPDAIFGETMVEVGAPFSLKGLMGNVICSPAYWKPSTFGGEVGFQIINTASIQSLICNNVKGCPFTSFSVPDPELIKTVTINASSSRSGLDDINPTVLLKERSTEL
Briefly: COX-2 enzyme inhibition (ADHP fluorescence). It is filed as biochemical. The following applies: for IC50: human recombinant COX-2, 15 min incubation. Here is the method:
as §2

Setting [6] is: rat, plasma, single dose 25 mg/kg.
[7] abbreviates: rat, plasma, single dose 25 mg/kg, read-out: Cmax.
Setting [8] is: rat, plasma, single dose 25 mg/kg, read-out: Tmax.
Where [9] appears, read: ovine COX-1, 15 min incubation, read-out: Inhibition IC50 COX-1.
Where [10] appears, read: blood of healthy donors, non-anticoagulation tube.
Where [11] appears, read: blood of healthy donors, heparin tube, lipopolysaccharide 100 μg/mL, overnight at 37° C.
Where [12] appears, read: rat, plasma, single dose 10 mg/kg.
Setting [13] is: rat, plasma, single dose 2.5 mg/kg.
[14] abbreviates: rat, plasma, single dose 2.5 mg/kg, read-out: Cmax.
[15] abbreviates: rat, plasma, single dose 2.5 mg/kg, read-out: Tmax.

Take `[2H]C([2H])([2H])c1ccc2c(c1)C=C(C(=O)O)C(C(F)(F)F)O2` (centres unmarked) [GIBH-1004, 6-(methyl-D3)-2-(trifluoromethyl)-2H-chromence-3-carboxylic acid]: the IC50 in data set [1] was over 100 µM; in data set [2] it was 67.5 µM; in data set [4] (setting [9]) it was over 100 µM. Also, the Vd in data set [3] (single dose 25 mg/kg) worked out at 0.58 L/kg. The BA in data set [3] (single dose 25 mg/kg) is 46.1%. The same molecule returned an area under the curve (AUC) in data set [3] (setting [6]) of 181 µg·h/mL. Also, the Cmax in data set [3] (setting [7]) worked out at 34200 ng/mL. In addition, in data set [3] (setting [8]), the Tmax worked out at 0.563 h. Besides, the half-life in data set [3] (setting [6]) was 2.88 h.

Consider `[2H]C([2H])([2H])C([2H])([2H])c1cc(OC(F)(F)F)cc2c1OC(C(F)(F)F)C(C(=O)O)=C2` (centres unmarked) [GIBH-1006, 8-(ethyl-D5)-6-(trifluoromethoxy)-2-(trifluoromethyl)-2H-chromene-3-carboxylic acid], for which, in data set [1] (setting [10]), the IC50 was 20.5 µM. In addition, the IC50 in data set [2] (setting [11]) stood at 79.5 µM. In addition, in data set [3] (single dose 25 mg/kg), the Vd worked out at 0.68 L/kg and the BA was 78.6%. Besides, the “AUC value compared among the compounds (in words)” value in data set [3] (rat PK, doses differ between compounds) is on record as “highest”. Also, in data set [3] (setting [6]), the AUC turned out to be 511 µg·h/mL and the half-life is 9.54 h. In addition, the Cmax in data set [3] (setting [7]) is 29500 ng/mL. Besides, the Tmax in data set [3] (setting [8]) was found to be 1.62 h. In addition, in data set [4] (setting [9]), the IC50 is over 100 µM.

Consider `[2H]C([2H])([2H])c1cc2c(c(C([2H])([2H])[2H])c1Cl)C=C(C(=O)O)C(C(F)(F)F)O2` (centres unmarked) [GIBH-1008, 6-chloro-5,7-(dimethyl-D6)-2-(trifluoromethyl)-2H-chromene-3-carboxylic acid], for which the IC50 in data set [1] (setting [10]) amounted to 65.1 µM. Besides, the IC50 in data set [2] (setting [11]) worked out at 78.5 µM. Also, in data set [3] (single dose 10 mg/kg), the volume of distribution (Vd) worked out at 0.26 L/kg, the Cmax is 20900 ng/mL, the Tmax is given as 1.167 h and the t½ is reported as 2.1 h. The BA in data set [3] (single dose 10 mg/kg) was 92.8%. In data set [3] (setting [12]), this molecule yielded an AUC of 118 µg·h/mL. For the same molecule, the IC50 in data set [4] (setting [9]) was over 100 µM. For the same molecule, the IC50 in data set [4] (read-out: IC50 value of COX-1) was over 100 µM.

As to `[2H]C([2H])([2H])c1cc2c(c(C([2H])([2H])[2H])c1Br)C=C(C(=O)O)C(C(F)(F)F)O2` (centres unmarked) [GIBH-1010, 6-bromo-5,7-(dimethyl-D6)-2-(trifluoromethyl)-2H-chromene-3-carboxylic acid], the IC50 in data set [1] (setting [10]) came to 38.9 µM. The IC50 in data set [2] (setting [11]) was over 100 µM. The IC50 in data set [5] was determined as 0.0671 µM. In addition, in data set [3] (single dose 10 mg/kg), the Vd worked out at 0.57 L/kg, the Cmax came out at 21399 ng/mL, the time to peak (Tmax) worked out at 0.5 h and the t½ is listed as 3.35 h. In addition, the BA in data set [3] (single dose 10 mg/kg) was 111.8%. In data set [3] (setting [12]), this molecule came in with an area under the curve (AUC) of 84.8 µg·h/mL. Also, the IC50 in data set [4] (setting [9]) is over 100 µM.

`[2H]C([2H])([2H])c1cc(Cl)cc2c1OC(C(F)(F)F)C(C(=O)O)=C2` (centres unmarked) [GIBH-1012, 6-chloro-8-(methyl-D3)-2-(trifluoromethyl)-2H-chromene-3-carboxylic acid]: the IC50 in data set [1] was over 100 µM. The IC50 in data set [2] was over 100 µM. Besides, in data set [3] (single dose 2.5 mg/kg), the Cmax was determined as 8945 ng/mL, the Tmax came to 0.5 h, the t½ came out at 3.37 h and the BA is 110.7%. Besides, in data set [3] (setting [13]), the AUC turned out to be 38.9 µg·h/mL. Also, the IC50 in data set [4] (setting [9]) was over 100 µM.

In the case of `[2H]C([2H])([2H])c1cc(Br)cc2c1OC(C(F)(F)F)C(C(=O)O)=C2` (centres unmarked) [GIBH-1014, 6-bromo-8-(methyl-D3)-2-(trifluoromethyl)-2H-chromene-3-carboxylic acid], the IC50 in data set [1] was over 100 µM. The IC50 in data set [2] came out at 45.2 µM. Besides, in data set [2] (human whole blood COX enzyme activity test), the “selectivity to the inhibition of COX-2 enzyme of blood cells” value is recorded as “better selectivity”. Also, the “ratio of the selectivity to COX-2 to the selectivity to COX-1” value in data set [5] (from enzyme IC50 values COX-1/COX-2) turned out to be 862. For the same molecule, in data set [5], the IC50 came out at 0.0368 µM. In data set [3] (single dose 10 mg/kg), the volume of distribution (Vd) came out at 0.53 L/kg, the Cmax turned out to be 35300 ng/mL, the Tmax is given as 0.417 h and the t½ is given as 5.2 h. In addition, the BA in data set [3] (single dose 10 mg/kg) is listed as 107.4%. The molecule further displayed an AUC in data set [3] (setting [12]) of 143 µg·h/mL. The IC50 in data set [4] (setting [9]) was 31.8 µM.

`[2H]C([2H])([2H])c1cc2c(c(C([2H])([2H])[2H])c1)OC(C(F)(F)F)C(C(=O)O)=C2` (centres unmarked) [GIBH-1016, 6,8-(dimethyl-D6)-2-(trifluoromethyl)-2H-chromene-3-carboxylic acid]: the IC50 in data set [1], in data set [2] and in data set [4] was over 100 µM in each case. The Vd in data set [3] (single dose 2.5 mg/kg) was determined as 0.94 L/kg. In data set [3] (single dose 2.5 mg/kg), the BA was 65.1%. This molecule also showed an AUC in data set [3] (setting [13]) of 4.33 µg·h/mL. The Cmax in data set [3] (setting [14]) was 4400 ng/mL. For the same molecule, the Tmax in data set [3] (setting [15]) worked out at 0.187 h. The half-life in data set [3] (setting [13]) is 1.04 h.

Turning to `[2H]C([2H])([2H])c1cc(Cl)c2c(c1)C=C(C(=O)O)C(C(F)(F)F)O2` (centres unmarked) [GIBH-1018, 8-chloro-6-(methyl-D3)-2-(trifluoromethyl)-2H-chromene-3-carboxylic acid], the IC50 in data set [1] was over 100 µM. The IC50 in data set [2] came out at 78.9 µM. In data set [3] (single dose 2.5 mg/kg), the volume of distribution (Vd) is 0.31 L/kg and the BA is recorded as 90.6%. Also, in data set [3] (setting [13]), the AUC worked out at 28.3 µg·h/mL and the half-life is 2.43 h. Moreover, the Cmax in data set [3] (setting [14]) is 11800 ng/mL. In data set [3] (setting [15]), the Tmax was 0.271 h. Besides, the IC50 in data set [4] (setting [9]) was over 100 µM.

Source of the values: patent US9371305B2, “Deuterated benzopyran compounds and application thereof” (Guangzhou Institutes of Biomedicine And Health, Chinese …, priority 2012, dated 2016).
